In brackets after ≈: the same amount, converted by molar mass.
Experiments:
BALB 3T3/H-ras cells = assay: Growth inhibition against BALB 3T3/H-ras cells; format: cell-based; settings: Mus musculus, 72 hours, Neutral Red
Solubility = format: physicochemical
[1] = tested on: Enterococcus faecium ATCC 10541; assay: Antibacterial activity, MIC by agar dilution method; format: cell-based; settings: ATCC10541, pH 7
Procedure: (§1) The antibacterial activity was determined by the agar dilution method using a medium (pH 7) which comprises 3 g/l Bacto-Tryptone (produced by Difco Laboratories), 3 g/l meat extract, 1 g/l yeast extract, 1 g/l glucose and 16 g/l agar.

[2] = tested on: Staphylococcus aureus ATCC 6538P; assay: as above; format: cell-based; settings: ATCC6538P, pH 7
Procedure: as §1

HeLaS3 cells = assay: Anti-tumor activity against HeLaS3 cells (Neutral Red growth inhibition); format: cell-based; settings: Homo sapiens, HeLa S3, 72 hours
Procedure: HeLaS3 cells (ATCC HTB22) were suspended in a medium comprising 10% fetal calf serum, 2 mM glutamine and MEM medium (produced by Nippon Pharmaceutical Co., Ltd.) (hereinafter referred to as medium A) to a concentration of 3×10^4 cells/ml. The cell suspension was put into wells of a 96-well microtiter plate in an amount of 0.1 ml per well. The cells in the plate were cultured at 37° C. for 20 hours in a CO2 -incubator. Subsequently, the test compound appropriately diluted with medium A was added to the wells in an amount of 0.1 ml/well. The cells were further cultured at 37° C. for 72 hours in the CO2 -incubator, and then the culture supernatant was removed. To the residue was added a medium comprising medium A and 0.02% Neutral Red in an amount of 0.1 ml per well, followed by culturing at 37° C. for one hour in the CO2 -incubator, whereby the cells were stained. After removal of the culture supernatant, the residue was washed once with physiological saline. The pigment was extracted with 0.001N hydrochloric acid/30% ethanol, and the absorbance at 550 nm was measured by using a microplate reader. The concentration of the test compound at which the growth of the cells is inhibited by 50% (IC50) was calculated by comparing the absorbance of untreated cells with those of the cells treated with the test compound at known concentrations.

| SMILES | IC50 (BALB 3T3/H-ras cells) [µM] | Solubility (Solubility; acetone) | Solubility (Solubility; chloroform) | Solubility (Solubility; dimethyl sulfoxide (DMSO)) | Solubility (Solubility; ethyl acetate) | Solubility (Solubility; methanol) | Solubility (Solubility; n-hexane) | Solubility (Solubility; water) | MIC [1] [µg/mL] | MIC [2] [µg/mL] | IC50 (HeLaS3 cells) [µM] | Solubility (Solubility; ethanol) |
| --- | --- | --- | --- | --- | --- | --- | --- | --- | --- | --- | --- | --- |
| CC(=O)c1c(O)cc2cc3c(c(O)c2c1O)C(=O)c1c(O)cc(O)cc1C3=O [Saintopin E] | 2.4 | Readily soluble | soluble | Readily soluble | soluble | Readily soluble | sparingly soluble | sparingly soluble | – | – | – | – |
| O=C1c2cc(O)cc(O)c2C(=O)c2c1cc1cc(O)cc(OS(=O)(=O)O)c1c2O [UCE 1022] | – | – | – | – | – | Soluble | sparingly soluble | Soluble | 0.52 (≈ 1.24 µM) | 0.52 (≈ 1.24 µM) | 6.1 | Soluble |
| O=C1c2cc(O)cc(O)c2C(=O)c2c1cc1cc(O)cc(O)c1c2O [UCT 1003, reference compound] | – | – | – | – | – | – | – | sparingly soluble | – | – | – | – |
